{"source": "patent US10882853B2", "about": "“Tyrosine kinase inhibitor and application thereof” (LaNova Medicines Limited, priority 2016, dated 2021)", "key": {"[1]": {"tested_on": "human colon cancer cells HCT116", "assay": "Inhibition on the proliferation of tumor cells (CCK8), HCT116", "assay_type": "cell-based", "conditions": "for IC50: read-out: HCT116 IC50", "experimental": "(§1) (1) Culture cells: The tumor cells (such as human lung adenocarcinoma cells HCC78, human malignant glioma cells U87MG, human gastric cancer cells MKN-45, human umbilical vein endothelial cells HUVEC, human lung adenocarcinoma cells A549, etc.) were cultured in culture medium; culture conditions: 37° C., 5% CO2.\n(§2) (2) Inoculate cells: The cells at the exponential growth phase and in good state were taken, and an appropriate amount of pancreatin for cell dissociation was added thereto, the cells were collected for centrifugation, and the supernatant was discarded. The cells were resuspended with the culture solution containing serum, then counted, and the cell suspensions were taken and inoculated in a 96-hole plate at 3000/hole, 90 μL/hole. The culture plate was transferred into a constant temperature CO2 incubator, and cultured under the conditions of 37° C., 5% CO2 and saturated humidity for 24 h.\n(§3) (3) Add the test compounds: 10 μL/hole, culture for 72 h, 3 parallel holes were set for each group."}, "[2]": {"tested_on": "human malignant glioma cells U87MG", "assay": "Inhibition on the proliferation of tumor cells (CCK8), U87MG", "assay_type": "cell-based", "conditions": "read-out: U87MG IC50", "experimental": "as §1, §2, §3\n(§4) (4) Determine the results: After 72 h of action for the compounds, 10 μL/hole CCK8 was added, incubated in the incubator for an appropriate time, and the absorbance was measured at 450 nm."}, "[3]": {"tested_on": "human ovarian cancer cells SK-OV-3", "assay": "Inhibition on the proliferation of tumor cells (CCK8), SK-OV-3", "assay_type": "cell-based", "conditions": "for IC50: read-out: SK-OV-3 IC50", "experimental": "as §1, §2, §3"}, "[4]": {"tested_on": "human gastric cancer cells MKN-45", "assay": "Inhibition on the proliferation of tumor cells (CCK8), MKN-45", "assay_type": "cell-based", "conditions": "read-out: MKN-45 IC50", "experimental": "as §1, §2, §3, §4"}, "[5]": {"tested_on": "human lung adenocarcinoma cells A549", "assay": "Inhibition on the proliferation of tumor cells (CCK8), A549", "assay_type": "cell-based", "conditions": "for IC50: read-out: A549 IC50", "experimental": "as §1, §2, §3"}, "[6]": {"tested_on": "human lung adenocarcinoma cells HCC78", "assay": "Inhibition on the proliferation of tumor cells (CCK8), HCC78", "assay_type": "cell-based", "conditions": "read-out: HCC78 IC50", "experimental": "as §1, §2, §3"}, "KDR": {"target": "KDR (Homo sapiens (Human), UniProt P35968)", "sequence (P35968 20-1356)": "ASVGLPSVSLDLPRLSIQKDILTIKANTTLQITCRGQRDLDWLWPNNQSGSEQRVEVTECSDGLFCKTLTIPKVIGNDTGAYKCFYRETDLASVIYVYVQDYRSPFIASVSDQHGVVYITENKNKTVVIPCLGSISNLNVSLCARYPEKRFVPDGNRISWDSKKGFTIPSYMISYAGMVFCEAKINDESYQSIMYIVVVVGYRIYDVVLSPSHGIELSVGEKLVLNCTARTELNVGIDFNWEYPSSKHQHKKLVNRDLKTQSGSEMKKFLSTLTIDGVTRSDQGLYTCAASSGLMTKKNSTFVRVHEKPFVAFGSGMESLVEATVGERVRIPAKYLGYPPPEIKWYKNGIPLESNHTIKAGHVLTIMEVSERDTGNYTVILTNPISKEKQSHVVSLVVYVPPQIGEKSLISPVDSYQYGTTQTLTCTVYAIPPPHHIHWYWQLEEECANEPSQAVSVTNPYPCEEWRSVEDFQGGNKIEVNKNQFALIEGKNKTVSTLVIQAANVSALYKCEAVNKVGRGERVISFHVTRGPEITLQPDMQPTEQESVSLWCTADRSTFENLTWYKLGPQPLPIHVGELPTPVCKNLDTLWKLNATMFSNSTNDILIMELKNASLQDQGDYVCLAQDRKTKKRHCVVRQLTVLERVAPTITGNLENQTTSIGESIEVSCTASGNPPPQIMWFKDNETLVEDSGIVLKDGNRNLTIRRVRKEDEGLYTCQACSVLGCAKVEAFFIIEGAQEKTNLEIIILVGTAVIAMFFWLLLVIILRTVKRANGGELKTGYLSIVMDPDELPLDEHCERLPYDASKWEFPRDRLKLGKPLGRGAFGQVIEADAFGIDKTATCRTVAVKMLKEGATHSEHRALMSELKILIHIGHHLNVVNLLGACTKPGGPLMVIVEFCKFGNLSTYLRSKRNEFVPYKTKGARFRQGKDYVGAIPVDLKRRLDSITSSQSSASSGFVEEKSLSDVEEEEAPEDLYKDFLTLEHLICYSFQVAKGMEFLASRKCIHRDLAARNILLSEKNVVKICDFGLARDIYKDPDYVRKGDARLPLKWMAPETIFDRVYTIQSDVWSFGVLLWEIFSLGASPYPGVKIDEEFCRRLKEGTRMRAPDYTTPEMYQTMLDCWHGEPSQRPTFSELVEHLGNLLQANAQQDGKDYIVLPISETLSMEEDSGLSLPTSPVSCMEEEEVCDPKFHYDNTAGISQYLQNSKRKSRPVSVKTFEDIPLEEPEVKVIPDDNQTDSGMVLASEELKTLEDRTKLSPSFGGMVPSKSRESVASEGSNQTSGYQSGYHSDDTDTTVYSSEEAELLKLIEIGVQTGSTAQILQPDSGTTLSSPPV", "assay": "Inhibitory activity on KDR kinase (HTRF, XL-665/antibody)", "assay_type": "biochemical", "experimental": "The compounds in the above Examples are used for detecting and screening the inhibitory activities of C-MET and KDR kinase.\n(2) Incubated at 25° C. for 5 min;\n(3) 2 μL of ATP/substrate/MgCl2/MnCl2/SEB/DTT mixed solution were added into the holes;\n(4) Centrifugated at 1000 rpm for 1 min, and incubated by vibration at 30° C. for 30 min;\n(6) Incubated at 25° C. for 1 h;\n(8) The data was analyzed according to the instructions of the kit, and the fitting calculation of IC50 was performed using GraphPad Prism5."}}, "note": "Like-named read-outs stand apart in the source and are kept apart here.", "data": [{"smiles": "COc1cc2c(Oc3ccc(NC(=O)C4(C(=O)Nc5ccc(F)cc5)CC4)cc3F)ccnc2cc1OCCCN1CCOCC1", "note": "[Foretinib, reference compound]", "values": [{"measurement": "IC50", "setting": "[1]; Homo sapiens, HCT-116, 72 h", "value": 2060, "unit": "nM"}, {"measurement": "IC50", "setting": "[2]; Homo sapiens, U-87 MG, 72 h", "value": 1650, "unit": "nM"}, {"measurement": "IC50", "setting": "[3]; Homo sapiens, SK-OV-3, 72 h", "value": 17200, "unit": "nM"}, {"measurement": "IC50", "setting": "[4]; Homo sapiens, MKN-45, 72 h", "value": 1870, "unit": "nM"}, {"measurement": "IC50", "setting": "[5]; Homo sapiens, A549, 72 h", "value": 2830, "unit": "nM"}]}, {"smiles": "COc1cc2c(Oc3ccc(NC(=O)C4(C(=O)Nc5ccc(F)c(F)c5)CC4)cc3F)ccnc2cc1OCCC[N+]1(C)CCOCC1", "note": "[For-Methyl, reference compound]", "values": [{"measurement": "HCT116 IC50", "setting": "[1]", "value": "No inhibition"}, {"measurement": "SK-OV-3 IC50", "setting": "[3]", "value": "No inhibition"}, {"measurement": "IC50", "setting": "[6]; Homo sapiens, HCC78, 72 h", "value": "> 10000", "unit": "nM"}, {"measurement": "A549 IC50", "setting": "[5]", "value": "No inhibition"}]}, {"smiles": "COc1cc2c(Oc3ccc(NC(=O)C4(C(=O)Nc5ccc(F)cc5)CC4)cc3F)ccnc2cc1OCC1CC(N2CCOCC2)C1", "note": "(centres unmarked) [Compound 5]", "values": [{"measurement": "IC50", "setting": "[1]; 72 h, CCK8", "value": 1660, "unit": "nM"}, {"measurement": "IC50", "setting": "[2]; 72 h, CCK8", "value": 1140, "unit": "nM"}, {"measurement": "IC50", "setting": "KDR", "value": 39.9, "unit": "nM"}, {"measurement": "IC50", "setting": "[3]; 72 h, CCK8", "value": 3490, "unit": "nM"}, {"measurement": "IC50", "setting": "[6]; Table 4 (FIG. 4), 72 h, CCK8", "value": 44.2, "unit": "nM"}, {"measurement": "IC50", "setting": "[4]; 72 h, CCK8", "value": 1260, "unit": "nM"}, {"measurement": "IC50", "setting": "[5]; 72 h, CCK8", "value": 1600, "unit": "nM"}]}, {"smiles": "COc1cc2c(Oc3ccc(NC(=O)C4(C(=O)Nc5ccc(F)cc5)CC4)cc3F)ccnc2cc1OC1CC(N2CCOCC2)C1", "note": "(centres unmarked) [Compound 10, N-p-fluorophenyl-N-3-fluoro-4-[6-methoxyl-7-(3-morpholine-cyclobutyl)oxyquinoline-4-]oxyphenyl cyclopropyl-1,1-dimethyl formamide]", "values": [{"measurement": "IC50", "setting": "[1]", "value": 2600, "unit": "nM"}, {"measurement": "IC50", "setting": "[2]", "value": 1600, "unit": "nM"}, {"measurement": "IC50", "setting": "KDR", "value": 64.2, "unit": "nM"}, {"measurement": "IC50", "setting": "[3]", "value": 7850, "unit": "nM"}, {"measurement": "IC50", "setting": "[6]", "value": 107, "unit": "nM"}, {"measurement": "IC50", "setting": "[4]", "value": 3200, "unit": "nM"}, {"measurement": "IC50", "setting": "[5]", "value": 4400, "unit": "nM"}]}]}
